Laboratory results reported in patent US10259796B2, “Oxaspiro[2.5]octane derivatives and analogs” (Zafgen, Inc., priority 2011, dated 2019).
Like-named read-outs stand apart in the source and are kept apart here.

Assays:
[1] = Cell Based Assay (inhibition range)
[2] = Mice weight loss, 7 day, 1 mg/kg/day oral gavage, diet-induced obese mice; assay type: in vivo; conditions: Mus musculus, 168 h, read-out: Mice Wt Loss 7 day % WL 1 mpk
Excerpt: Lean body mass is important to normal function in subjects. Substantial loss of lean body mass is not a desirable consequence of a therapy for an overweight or obese subject. A study is undertaken to analyze weight loss with respect to lean body mass.
Mice are divided into two groups, a diet-induced obese group and a lean group (control). For the diet-induced obese group, C57BL/6NTac mice maintained prior to and during the study on a diet containing 60% fat on a kilocalorie basis are further divided into two groups, fifteen mice per group. Average body weight of these diet-induced obese mice is 40 g at the start of the study. For the lean group, fifteen C57BLI6NTac mice are maintained on a diet containing 4.3% by weight fat prior to and during the study. Average body weight of these lean mice is 33 g at the start of the study. Daily food consumption is also recorded.
Compounds of the invention are administered to one of the diet-induced obese mice groups by oral gavage as a solution in 10% DMSO, at dose of 1 mg/kg/day, 7 days. The other diet-induced obese mice group and the lean mice group are not administered anything.

recombinant human MetAP2 = molecular target: T1, recombinant human MetAP2 (Homo sapiens, UniProt P50579); test: MetAP2 enzyme assay (inhibition of recombinant MetAP2, Met-Gly-Met-Met substrate); assay type: biochemical; conditions: 50 nM
T1 construct: made in house; host or cells: High Five insect cells (Bac-to-Bac baculovirus)
Description: Exemplary procedures for expression and purification of MetAP2 are shown in Griffith et al. (PNAS (1998) 95(26):15183-15188). Briefly, recombinant His-tagged human MetAP2 is expressed by using a Bac-to-Bac baculovirus expression system (GIBCO/BRL). Recombinant baculovirus stocks are generated and amplified as per the manufacturer's instructions. Protein is harvested 36 hr after baculovirus infection of two 15-cm plates of High Five cells.
The cell pellet are weighed and lysed (in 5 ml/g of wet pellet) in pre-chilled lysis buffer [buffer B+1% Nonidet P-40/1 mM phenymethylsulfonyl fluoride (PMSF)/2 μg/ml leupeptin/2 μg/ml aprotinin/1 μg/ml pepstatin]. The lysate is incubated on ice for 10 min and centrifuged at 10,000×g for 10 min. […] The Talon resin is pelleted by centrifugation at 1,200×g for 3 min and washed with 4×10 ml of buffer B. During the final wash, the resin is slurried into a Bio-Rad Econo column. The 6×His-tagged MetAP2 is eluted with 6 ml of 50 mM imidazole in buffer B, and 0.5 ml fractions are collected. The amount and purity of recombinant MetAP2 is analyzed by the absorbance at 280 nm and SDS/PAGE (10% gel). The fractions containing the highest amounts of MetAP2 are pooled and dialyzed against 3 liters of buffer B overnight before storage at 4° C.
An enzyme assay is performed in a 96-well format as described in Griffith et al. (PNAS (1998) 95(26):15183-15188). […] To begin the enzymatic reaction, Met-Gly-Met-Met is added to a final concentration of 4 mM and incubated at 37° C. The reaction is quenched after 20 min by adding EDTA to a concentration of 10 mM. Released methionine is quantitated as described in Ben-Bassat et al. (J Bacteriol (1987) 169:751-757).
IC50 values are calculated and compounds herein are determined to be active inhibitors of MetAP2, with some having nanomolar activities.

MetAP2 enzyme = molecular target: T2, MetAP2 enzyme (Mus musculus, UniProt O08663); test: THX1 N-terminal peptide in mouse testes (MetAP2 inhibition in testes) after 10 days PO 3 mg/kg; assay type: in vivo; conditions: mice, PO once a day for 10 days, testes taken 24 hours after last dose
T2 construct: from tissue; host or cells: testes of diet-induced obese C57BL/6NTac mice
Description: Diet-induced obese mice, C57BL/6NTac mice, were dosed PO once a day for 10 days with 3 mg/kg of compound 201 (fumagillin), 202, 203, 231 and 233. On day 11, 24 hours after the last dose the mice are sacrificed and the testes are dissected out and frozen. The frozen testes are subsequently homogenized and subjected to endoproteinase Glu-C digestion. The resulting digest mixture is analyzed by LC-MS/MS to quantitate the level of the N-terminal peptide of thioredoxin (Thrx), amino acid 1-6. Thioredoxin is a selective substrate of the MetAP2 enzyme and the degree of unprocessed thioredoxin (amino acid 1-6 rather than the processed des-Met thioredoxin amino acid 2-6) is indicative of the level of MetAP2 inhibition in a given tissue.

[3] = Body weight % difference, diet-induced obese mice dosed PO once a day for 10 days with 3 mg/kg; assay type: in vivo; conditions: diet-induced obese C57BL/6NTac mice
[4] = 1 hr, read-out: MetAP2 Enzyme Assay 1 hr 50 nM
[5] = 2 hr, read-out: MetAP2 Enzyme Assay 2 hr 50 nM
[6] = 4 hr, read-out: MetAP2 Enzyme Assay 4 hr 50 nM
[7] = diet-induced obese C57BL/6NTac mice, oral gavage, 1 mg/kg/day, 7 days

T2 sequence (O08663 whole entry): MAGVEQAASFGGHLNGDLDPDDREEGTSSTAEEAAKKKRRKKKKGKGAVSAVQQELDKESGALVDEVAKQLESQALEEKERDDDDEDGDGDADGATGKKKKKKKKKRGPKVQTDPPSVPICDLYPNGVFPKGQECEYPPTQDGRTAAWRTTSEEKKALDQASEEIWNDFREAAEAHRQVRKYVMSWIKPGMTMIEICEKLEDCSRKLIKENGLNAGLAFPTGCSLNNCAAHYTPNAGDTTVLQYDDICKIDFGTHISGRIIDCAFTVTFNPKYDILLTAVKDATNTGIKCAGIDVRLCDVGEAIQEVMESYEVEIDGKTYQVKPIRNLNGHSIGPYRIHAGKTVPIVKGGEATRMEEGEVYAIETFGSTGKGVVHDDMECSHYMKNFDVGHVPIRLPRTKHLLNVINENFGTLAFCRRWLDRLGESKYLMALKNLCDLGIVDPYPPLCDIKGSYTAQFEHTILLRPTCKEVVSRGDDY
T1 sequence (P50579 whole entry): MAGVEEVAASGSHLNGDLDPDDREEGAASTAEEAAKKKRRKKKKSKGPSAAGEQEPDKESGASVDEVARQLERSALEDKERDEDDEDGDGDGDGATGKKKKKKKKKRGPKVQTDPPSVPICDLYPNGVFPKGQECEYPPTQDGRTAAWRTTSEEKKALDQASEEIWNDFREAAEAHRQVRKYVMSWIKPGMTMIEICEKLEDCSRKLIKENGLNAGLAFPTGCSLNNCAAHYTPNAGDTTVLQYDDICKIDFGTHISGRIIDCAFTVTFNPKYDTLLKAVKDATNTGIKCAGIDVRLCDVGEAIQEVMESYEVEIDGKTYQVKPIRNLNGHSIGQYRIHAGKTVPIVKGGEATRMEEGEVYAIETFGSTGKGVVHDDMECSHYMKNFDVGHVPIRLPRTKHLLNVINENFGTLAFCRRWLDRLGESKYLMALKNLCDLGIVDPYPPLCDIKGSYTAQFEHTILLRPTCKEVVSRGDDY

Row | SMILES | IC50 ([1]; cells printed in nM) [nM] | change in vivo at 1 mg/kg ([2]; po) [%] | inhibition at 0.05 µM (recombinant human MetAP2; [4]) [%] | inhibition at 0.05 µM (recombinant human MetAP2; [5]) [%] | inhibition at 0.05 µM (recombinant human MetAP2; [6]) [%] | change in vivo at 1 mg/kg [2, 7] [%] | IC50 ([1]; in uM) [nM] | inhibition of the enzyme (MetAP2) in the testes, by THX1 N-terminal peptide (MetAP2 enzyme) | weight loss over 10 days of treatment [3]
1 | CO[C@@H]1[C@H](OC(=O)N[C@@H](C(N)=O)C(C)C)CC[C@]2(CO2)[C@H]1[C@@]1(C)O[C@@H]1CC=C(C)C [Example 3] | < 10 | 5 | 62 | 90 | 100 |  |  |  | 
2 | COC(=O)CCCCCCCCC(=O)O[C@@H]1CC[C@]2(CO2)[C@@H]([C@@]2(C)O[C@@H]2CC=C(C)C)[C@@H]1OC [Example 4] | 10 to 100 |  | 46 | 58 | 94 | 12.5 |  |  | 
3 | CO[C@@H]1[C@H](OC(=O)CCCCCCCCC(=O)O)CC[C@]2(CO2)[C@H]1[C@@]1(C)O[C@@H]1CC=C(C)C [Example 5] | < 10 | 9.5 | 15 | 30 | 50 |  |  |  | 
4 | COC(=O)CCCCCCCCCO[C@H]1CC[C@]2(CO2)[C@@H]([C@@]2(C)O[C@@H]2CC=C(C)C)[C@@H]1OC [Example 6] |  |  | 0 | 0 | 0 | 1.7 | > 1000 |  | 
5 | CO[C@@H]1[C@H](NCCCCCCCCCC(=O)O)CC[C@]2(CO2)[C@H]1[C@@]1(C)O[C@@H]1CC=C(C)C [Example 7] |  | 0.5 | 0 | 0 | 0 |  | > 1000 |  | 
6 | CO[C@@H]1C(=O)CC[C@]2(CO2)[C@H]1[C@@]1(C)O[C@@H]1CC=C(C)C [Example 8, fumagillin ketone] | < 10 | 11.3 | 46 | 65 | 93 |  |  |  | 
7 | CO[C@@H]1[C@H](OC(=O)CCCCCCCCC(=O)O)CC[C@]2(CO2)[C@H]1[C@@]1(C)O[C@@H]1CCC(C)C [Example 9] |  |  | 12 | 35 | 50 | 3.3 | 100 to 1000 |  | 
8 | CCCCCCCCCCC(=O)O[C@@H]1CC[C@]2(CO2)[C@@H]([C@@]2(C)O[C@@H]2CC=C(C)C)[C@@H]1OC [Example 12] |  |  | 0 | 5 | 29 | 8.4 | 100 to 1000 |  | 
9 | C=C1CC[C@]2(CO2)[C@@H]([C@@]2(C)O[C@@H]2CC=C(C)C)[C@@H]1OC [Example 15] |  | 7.9 | 26 | 32 | 40 |  | 100 to 1000 |  | 
10 | CCCCCCCC/C=C\CCCCCCCC(=O)O[C@@H]1CC[C@]2(CO2)[C@@H]([C@@]2(C)O[C@@H]2CC=C(C)C)[C@@H]1OC [Example 16] |  | 5.4 | 0 | 0 | 0 |  | > 1000 |  | 
11 | CO[C@H]1[C@H]([C@@]2(C)O[C@@H]2CC=C(C)C)[C@]2(CCC1(F)F)CO2 [Example 17] |  | 0.1 | 29 | 44 | 40 |  | > 1000 |  | 
12 | CCCCCCCCCCS[C@@H]1CC[C@]2(CO2)[C@@H]([C@@]2(C)O[C@@H]2CC=C(C)C)[C@@H]1OC [Example 18] |  |  | 0 | 0 | 0 | 0 | > 1000 |  | 
13 | COC(=O)CCCCCCCCCO[C@@H]1CC[C@]2(CO2)[C@@H]([C@@]2(C)O[C@@H]2CC=C(C)C)[C@@H]1OC [Example 19] |  |  | 0 | 0 | 0 | -0.9 | > 1000 |  | 
14 | CCCCCCCCCC=C1CC[C@]2(CO2)[C@@H]([C@@]2(C)O[C@@H]2CC=C(C)C)[C@@H]1OC [Example 20] |  | 0.4 | 0 | 0 | 0 |  | > 1000 |  | 
15 | CO[C@@H]1[C@@H](F)CC[C@]2(CO2)[C@H]1[C@@]1(C)O[C@@H]1CC=C(C)C [Example 23] | 10 to 100 |  | 23 | 28 | 27 | -0.33 |  |  | 
16 | CCCC/C=C/C[C@H]1O[C@]1(C)[C@H]1[C@H](OC)C(=O)CC[C@]12CO2 [Example 25] | 10 to 100 | 0.1 | 19 | 40 | 40 |  |  |  | 
17 | CO[C@@H]1[C@H](OC(=O)CCCCCCCCC(=O)O[C@@H]2CC[C@]3(CO3)[C@@H]([C@@]3(C)O[C@@H]3CC=C(C)C)[C@@H]2OC)CC[C@]2(CO2)[C@H]1[C@@]1(C)O[C@@H]1CC=C(C)C [Example 27] | 10 to 100 | 4.4 |  |  | 48 |  |  |  | 
18 | CO[C@@H]1[C@H](OC(=O)NCCC2CCCN2C)CC[C@]2(CO2)[C@H]1[C@@]1(C)O[C@@H]1CC=C(C)C (stereo partly shown) [Example 29] | < 10 |  |  |  | 63 | 5.7 |  |  | 
19 | CO[C@@H]1[C@H](OC(=O)NC2CN3CCC2CC3)CC[C@]2(CO2)[C@H]1[C@@]1(C)O[C@@H]1CC=C(C)C (stereo partly shown) [Example 30] | < 10 |  |  |  | 30 | -0.9 |  |  | 
20 | CO[C@@H]1[C@H](OC(=O)N[C@@H](C(=O)NCCCN(C)C)C(C)C)CC[C@]2(CO2)[C@H]1[C@@]1(C)O[C@@H]1CC=C(C)C [Example 32] | < 10 |  |  |  | 54 | 0.3 |  |  | 
21 | CO[C@@H]1[C@H](OC(=O)N[C@@H](C(=O)NCCC2CCCN2C)C(C)C)CC[C@]2(CO2)[C@H]1[C@@]1(C)O[C@@H]1CC=C(C)C (stereo partly shown) [Example 33] | < 10 |  |  |  | 43 | 2.1 |  |  | 
22 | CO[C@@H]1[C@H](OC(=O)/C=C/C=C/C=C/C=C/C(=O)O)CC[C@]2(CO2)[C@H]1[C@@]1(C)O[C@@H]1CC=C(C)C [compound 201, fumagillin, reference compound] |  |  |  |  |  |  |  | No inhibition | robust weight loss
23 | COC(=O)CCCCCCCCC(=O)O[C@@H]1CC[C@]2(CO2)[C@@H]([C@@]2(C)O[C@@H]2CC=C(C)C)[C@@H]1OC [compound 205] |  |  |  |  |  |  |  | No inhibition | robust weight loss
24 | CO[C@@H]1[C@H](OC(=O)CCCCCCCCC(=O)O)CC[C@]2(CO2)[C@H]1[C@@]1(C)O[C@@H]1CC=C(C)C [compound 206] |  |  |  |  |  |  |  | No inhibition | robust weight loss
25 | CCCCCCCCCCC(=O)O[C@@H]1CC[C@]2(CO2)[C@@H]([C@@]2(C)O[C@@H]2CC=C(C)C)[C@@H]1OC [compound 216] |  |  |  |  |  |  |  | No inhibition | robust weight loss
